Source: patent publication US20230279023A1, “N/O-Linked Degrons and Degronimers for Protein Degradation” (C4 Therapeutics, Inc., priority 2019, published 2023)

Target: CRBN-DDB1 (Homo sapiens (Human), UniProt Q96SW2)
Assay: Fluorescence polarization (FP) assay for compound ligand binding to CRBN-DDB1
Details: FP displacement of (−)-Thalidomide-Alexa Fluor or Pomalidomide-fluorescein probe, 400 nM CRBN-DDB1, 5 nM probe
Description: Measuring compound ligand binding to CRBN-DDB1 was carried out using an established sensitive and quantitative in vitro fluorescence polarization (FP) based binding assay. […] Compounds were dispensed from serially diluted DMSO stock into black 384-well compatible fluorescence polarization plates using an Echo acoustic dispenser. Compound binding to CRBN-DDB1 was measured by displacement of either a (−)-Thalidomide-Alexa Fluor® or Pomalidomide-fluorescein conjugated probe dye. […] Matching control wells excluding CRBN-DDB1 were used to correct for background fluorescence. Plates were read on an Envision plate reader with appropriate FP filter sets. The corrected S (perpendicular) and P (parallel) values were used to calculate fluorescence polarization (FP) with the following equation: […]

[1] = Additional Compounds of the Present Invention
[2] = Compounds of the Present Invention

Sequence of CRBN-DDB1 (Q96SW2 whole entry): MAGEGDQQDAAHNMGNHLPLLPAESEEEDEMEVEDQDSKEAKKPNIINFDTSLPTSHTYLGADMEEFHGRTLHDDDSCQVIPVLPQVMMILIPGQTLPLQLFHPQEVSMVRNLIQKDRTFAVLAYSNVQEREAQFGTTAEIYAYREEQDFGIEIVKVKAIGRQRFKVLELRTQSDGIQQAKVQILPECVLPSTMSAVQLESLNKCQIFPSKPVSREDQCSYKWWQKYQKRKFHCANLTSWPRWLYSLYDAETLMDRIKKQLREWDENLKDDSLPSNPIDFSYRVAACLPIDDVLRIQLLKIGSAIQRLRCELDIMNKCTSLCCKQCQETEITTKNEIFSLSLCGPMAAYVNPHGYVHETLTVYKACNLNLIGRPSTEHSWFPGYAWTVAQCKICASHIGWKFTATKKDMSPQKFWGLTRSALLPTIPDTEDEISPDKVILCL
Sequence of CRBN-DDB1 (Q16531 whole entry partner): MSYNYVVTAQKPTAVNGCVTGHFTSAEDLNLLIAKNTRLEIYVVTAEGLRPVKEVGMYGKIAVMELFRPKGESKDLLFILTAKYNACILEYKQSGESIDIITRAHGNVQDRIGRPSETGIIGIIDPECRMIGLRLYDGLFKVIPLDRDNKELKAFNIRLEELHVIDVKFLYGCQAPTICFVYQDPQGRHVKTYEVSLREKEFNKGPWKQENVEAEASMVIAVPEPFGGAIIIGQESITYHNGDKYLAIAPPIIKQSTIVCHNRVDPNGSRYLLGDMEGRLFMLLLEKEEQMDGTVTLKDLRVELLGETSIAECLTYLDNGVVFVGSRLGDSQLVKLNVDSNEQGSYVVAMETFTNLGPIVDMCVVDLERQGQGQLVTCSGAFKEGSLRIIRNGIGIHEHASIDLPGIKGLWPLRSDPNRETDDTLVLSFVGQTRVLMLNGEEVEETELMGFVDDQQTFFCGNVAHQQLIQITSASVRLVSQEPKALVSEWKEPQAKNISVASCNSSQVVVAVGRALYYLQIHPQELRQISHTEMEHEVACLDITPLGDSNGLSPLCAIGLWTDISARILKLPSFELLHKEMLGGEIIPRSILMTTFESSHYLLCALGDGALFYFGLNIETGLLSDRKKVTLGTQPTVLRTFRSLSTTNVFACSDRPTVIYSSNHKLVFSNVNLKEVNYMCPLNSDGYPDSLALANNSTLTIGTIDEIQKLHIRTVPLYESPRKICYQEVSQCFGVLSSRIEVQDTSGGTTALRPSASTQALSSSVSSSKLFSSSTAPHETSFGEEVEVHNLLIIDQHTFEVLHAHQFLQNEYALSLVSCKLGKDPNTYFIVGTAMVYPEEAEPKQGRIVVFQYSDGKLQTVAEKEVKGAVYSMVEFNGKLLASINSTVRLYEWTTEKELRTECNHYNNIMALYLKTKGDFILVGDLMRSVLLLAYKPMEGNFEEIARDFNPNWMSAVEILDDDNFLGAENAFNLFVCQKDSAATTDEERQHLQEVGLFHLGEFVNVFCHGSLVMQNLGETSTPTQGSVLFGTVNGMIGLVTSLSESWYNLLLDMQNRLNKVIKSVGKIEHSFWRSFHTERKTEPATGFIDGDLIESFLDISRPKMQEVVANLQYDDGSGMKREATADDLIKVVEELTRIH

| Compound | Kd [2] [µM] | further results |
| --- | --- | --- |
| CCOc1cccc(OC2CCC(=O)NC2=O)c1 (stereo not drawn) [Compound 141] |  | Kd [1]: < 10 µM |
| CC(C)(C)OC(=O)N1CCN(c2ccc(OC3CCC(=O)NC3=O)cc2)CC1 (stereo not drawn) [Compound 132, 4-[4-(2,6-Dioxo-piperidin-3-yloxy)-phenyl]-piperazine-1-carboxylic acid tert-butyl ester] |  | Kd [1]: < 10 µM |
| COc1ccc(NC2CCC(=O)NC2=O)cc1F (stereo not drawn) [Compound 7] | < 10 |  |
| CN(C)c1cccc(OC2CCC(=O)NC2=O)c1 (stereo not drawn) [Compound 151] |  | Kd [1]: < 10 µM |
| COc1ccccc1NC1CCC(=O)NC1=O (stereo not drawn) [Compound 15] | < 10 |  |
| Cc1ccc(NC2CCC(=O)NC2=O)cc1 (stereo not drawn) [Compound 38] | < 10 |  |
| O=C1CCC(Nc2cc(Cl)ccc2O)C(=O)N1 (stereo not drawn) [Compound 19] | < 10 |  |
| C#Cc1cccc(OC2CCC(=O)NC2=O)c1 (stereo not drawn) [Compound 150] |  | Kd [1]: < 10 µM |
| O=C1CCC(Nc2ccc(Oc3ccccc3)cc2)C(=O)N1 (stereo not drawn) [Compound 28] | < 10 |  |
| CN(c1ccc(Br)cc1)C1CCC(=O)NC1=O (stereo not drawn) [Compound 32] | < 10 |  |
| COc1ccc(N(C)C2CCC(=O)NC2=O)cc1 (stereo not drawn) [Compound 20] | < 10 |  |
| Cc1cccc(N(C)C2CCC(=O)NC2=O)c1 (stereo not drawn) [Compound 18] | < 10 |  |
| O=C1CCC(Nc2cccc(F)c2)C(=O)N1 (stereo not drawn) [Compound 9] | < 10 |  |
| O=C1CCC(Nc2cccc(-c3ccccn3)c2)C(=O)N1 (stereo not drawn) [Compound 22] | < 10 |  |
| N#Cc1ccc2cc(OC3CCC(=O)NC3=O)ccc2c1 (stereo not drawn) [Compound 138] |  | Kd [1]: < 10 µM |
| CN(c1cccc(Cl)c1)C1CCC(=O)NC1=O (stereo not drawn) [Compound 34] | < 10 |  |
| O=C1CCC(Nc2cccc(-c3cnco3)c2)C(=O)N1 (stereo not drawn) [Compound 39] | < 10 |  |
| COc1cc(Cl)c(C)cc1NC1CCC(=O)NC1=O (stereo not drawn) [Compound 4] | < 10 |  |
| O=C1CCC(Nc2ccc(C(F)(F)F)cc2)C(=O)N1 (stereo not drawn) [Compound 26] | < 10 |  |
| CN1Cc2cc(NC3CCC(=O)NC3=O)ccc2C1=O (stereo not drawn) [Compound 160] |  | Kd [1]: < 10 µM |
| Cn1ccc2cc(OC3CCC(=O)NC3=O)ccc21 (stereo not drawn) [Compound 140] |  | Kd [1]: < 10 µM |
| O=C1CCC(Nc2ccc(Cl)cc2)C(=O)N1 (stereo not drawn) [Compound 37] | < 10 |  |
| Cc1sc2c(c1C)C(c1ccc(Cl)cc1)=N[C@@H](CC(=O)NCCCCCCCCN1CCN(c3ccc(NC4CCC(=O)NC4=O)cc3)CC1)c1nnc(C)n1-2 (stereo partly drawn) [Degronimer 1, 2-((S)-4-(4-chlorophenyl)-2,3,9-trimethyl-6H-thieno[3,2-f][1,2,4]triazolo[4,3-a][1,4]diazepin-6-yl)-N-(8-(4-(4-((2,6-dioxopiperidin-3-yl)amino)phenyl)piperazin-1-yl)octyl)acetamide] |  | Kd (Degronimers): < 10 µM |
| CCCOc1ccc(NC2CCC(=O)NC2=O)cc1 (stereo not drawn) [Compound 31] | < 10 |  |

The next lines start with results.

| Kd [2] [µM] | Compound | further results |
| --- | --- | --- |
| < 10 | COc1ccc(Cl)cc1NC1CCC(=O)NC1=O (stereo not drawn) [Compound 48] |  |
| < 10 | Cc1ccccc1N(C)C1CCC(=O)NC1=O (stereo not drawn) [Compound 61] |  |
| < 10 | COc1c(Cl)cccc1NC1CCC(=O)NC1=O (stereo not drawn) [Compound 62] |  |
| < 10 | CC(C)(C)OC(=O)N1CCN(c2cccc(NC3CCC(=O)NC3=O)c2)CC1 (stereo not drawn) [Compound 82] |  |
| < 10 | Cc1cccc(NC2CCC(=O)NC2=O)c1C#N (stereo not drawn) [Compound 65] |  |
| < 10 | CN(c1cccc(Br)c1)C1CCC(=O)NC1=O (stereo not drawn) [Compound 57] |  |
| > 100 | COC(=O)c1cccnc1NC1CCC(=O)NC1=O (stereo not drawn) [Compound 122] |  |
| > 100 | CN(C1COC1)C1CCC(=O)NC1=O (stereo not drawn) [Compound 97] |  |
| < 10 | O=C1CCC(Nc2c(F)cccc2Cl)C(=O)N1 (stereo not drawn) [Compound 54] |  |
| < 10 | O=C1CCC(Nc2ccc(C3CCNCC3)cc2)C(=O)N1 (stereo not drawn) [Compound 85] |  |
| < 10 | CC(C)(C)OC(=O)N1CCC(c2ccc(NC3CCC(=O)NC3=O)cc2)CC1 (stereo not drawn) [Compound 81] |  |
| < 10 | COc1ccc(Cl)c(NC2CCC(=O)NC2=O)c1 (stereo not drawn) [Compound 44] |  |
| > 100 | CNC(=O)CN(C)C1CCC(=O)NC1=O (stereo not drawn) [Compound 109] |  |
| > 100 | CN(C1CNC1)C1CCC(=O)NC1=O (stereo not drawn) [Compound 101] |  |
| > 100 | O=C1CCC(N2CCc3cccnc32)C(=O)N1 (stereo not drawn) [Compound 118] |  |
